According to patent publication US20060167109A1, “Methods of reducing rhinovirus contagion and related compositions” (priority 2002, published 2006):
Several values for one entry are separate records, joined by “and”; a condition that tells them apart may be missing. Equal entries are not always repeated.

Assays:
log P = type: physicochemical
[1] = Pleconaril concentration in nasal mucus, clinical studies 843-043 and 843-044; conditions: diluted samples, individual subjects
Description: Two hundred (200) μl of acetonitrile was added to 200 μl of each nasal mucus standard and sample. The samples and standards were vortex mixed and then centrifuged at 25° C. for 10 minutes at 2500 rpm. 170 μl of supernatant was removed from each standard and sample. Then, 30 μl of water was added. The mixture was vortex mixed and 40 μl was injected for quantitative analysis of pleconaril.
Standards and samples were analyzed via LC/MS/MS. • Mass Spec: Micromass Quattro • LC: Alliance 2790 • Mobile Phase: 85% Acetonitrile/15% 2 mM Ammonium Acetate (0.2% formic acid) • Flow Rate: 0.5 ml/min • Analytical Column: Luna C18 (2) 5μ, 50×3.00 mm (Phenomenex) • Source: ESI (Electrospray Ionization) • Ion Mode: Positive • MRM transition: 382>82
The Masslyns quantitation package was used to analyze the results. The method used was a linear (1/× weighted) external standard method of calibration.
Studies 843-043 and 843-044 were Phase III clinical trials for the acute treatment of viral respiratory infection (common cold) in which pleconaril was administered for five days (400 mg TID). These samples were selected based on the plasma concentrations measured on Day 3 of 6 (plasma concentrations at or above 1 μg/ml).
Nasal mucus samples were diluted with 2 ml of transport media during processing and prior to quantitative analysis.

[2] = Clinical pharmacokinetics: food effect, linearity, renal excretion; type: in vivo, human
Description: Pleconaril was administered with food in all Phase II and III clinical studies conducted by Applicants.
Pleconaril has a volume of distribution (Vz/F) that is consistent with significant tissue distribution despite the fact that pleconaril is highly bound (>99%) to plasma protein. Pleconaril is a low systemic clearance drug. Renal clearance contributes insignificantly to the systemic clearance of pleconaril. Less than 1% of the dose is excreted unchanged as pleconaril in urine.

[3] = Repeated dose pharmacokinetics, clinical dosing regimen; type: in vivo, human; conditions: 400 mg TID for 5 days
Description: Plasma accumulation of pleconaril was modest (approximately two fold) when pleconaril was administered according to the clinical dosing regimen (400 mg TID for 5 days). The long terminal half-life had only a modest influence on pleconaril plasma concentration-time profiles for the clinical dosing regimen. The repeated dose pharmacokinetic profile of pleconaril was predictable from single dose data and, thus, the pharmacokinetic profile of pleconaril was time independent (FIG. 2).

HRV serotype 2 = test: Reversibility of pleconaril binding; type: cell-based, human rhinovirus
Description: (§1) The first question presented is whether pleconaril could bind to human rhinoviruses irreversibly. Various HRVs were incubated overnight at 4° C. with pleconaril at a concentration approximately 10 times the IC50 value. Parallel samples were incubated in medium with 0.5% dimethyl sulfoxide (DMSO) alone. The next day, samples were diluted 10,000-fold into pleconaril-free medium and incubated an additional 24 hrs at 4° C., followed by titration by plaque assay.
(§2) After 24 hours, virus samples were diluted 10,000-fold in culture medium and incubated an additional 24 hours at 4° C. Virus titers in the DMSO- and pleconaril-treated samples were then determined by plaque assay in the appropriate cell line as described below.
(§3) In some experiments, virus titers were determined by plaque assay. Cells in 6 well plates were infected with 1 mL of 10-fold dilutions of virus in duplicate for 1 hour at the appropriate incubation temperature. The inoculum was then removed and the cells were overlaid with 3 mL of agarose overlay medium (Eagles minimum essential medium (Life Technologies, Grand Island, N.Y.) with 50 mM Hepes buffer, pH 7.2, 5% FBS, antibiotics, and 1.5% SeaPlaque (HRVs)). The HRV overlay medium was further supplemented with 30 mM MgCl2 and 15 μg/mL DEAE dextran. […] After rinsing and drying, plaques were read manually.

HRV serotype 5 = test: Reversibility of pleconaril binding; type: cell-based, human rhinovirus; conditions: about 10 times IC50, then diluted 10,000-fold, plaque assay
Description: as §1, §2, §3

HRV serotype 14 = test: Reversibility of pleconaril binding; type: cell-based, human rhinovirus
Description: as §1, §2, §3

HRV serotype 89 = test: Reversibility of pleconaril binding; type: cell-based, human rhinovirus
Description: as §1, §2, §3

HRV serotype 1A = test: Reversibility of pleconaril binding; type: cell-based, human rhinovirus
Description: as §1, §2, §3

HRV serotype 50 = test: Reversibility of pleconaril binding; type: cell-based, human rhinovirus
Description: as §1, §2, §3

HRV serotype 3 = test: Reversibility of pleconaril binding; type: cell-based, human rhinovirus
Description: as §1, §2, §3

HRV3 = test: Uncoating inhibition; type: cell-based, human rhinovirus; conditions: 2 μM, 2 hours at 33° C.
Description: Following attachment to susceptible cells, rhinoviruses are endocytosed and disassembled or uncoated in order to release the viral RNA for subsequent gene expression and RNA replication. To determine if pleconaril affected the uncoating stage of the virus infection cycle, two types of experiments were carried out. In the first approach, an experiment was conducted to follow directly the fate of intact ^35S-radiolabeled (156S) virions attached to cells that were then allowed to proceed through virion disassembly (uncoating) in either the absence or presence of pleconaril. HRV3 virus was chosen for this experiment, as it is representative of the respective genera, and because binding of pleconaril was fully reversible with dilution, minimizing the possibility of drug carryover issues.
After virion attachment, either pleconaril (2 μM) or DMSO control solution was added to the cultures. After an additional 1 hour, the culture was shifted to 33° C., a temperature that permitted virus uncoating. After 2 hours, cell lysates were prepared and the amount of intact 156S virions was assessed by sedimentation of the lysates on continuous sucrose density gradients. […]

## Cc1cc(CCCOc2c(C)cc(-c3noc(C(F)(F)F)n3)cc2C)on1 [pleconaril, 3-[3,5-dimethyl-4-[3-(3-methyl-5-isoxazolyl)propoxy]phenyl]-5-(trifluoromethyl)-1,2,4-oxadiazole]
Log P
  log P: high
[1]; Study 43, Day 3, 400 mg TID for five days
  Pleconaril Concentration (Nasal Mucus): 26.36 ng/mL and 10.22 ng/mL and 2.46 ng/mL and 1.20 ng/mL
[1]; Study 43, Day 6, 400 mg TID for five days
  Pleconaril Concentration (Nasal Mucus): BQL and 2.21 ng/ml and 33.93 ng/ml and 79.38 ng/ml
[1]; Study 44, Day 3, 400 mg TID for five days
  Pleconaril Concentration (Nasal Mucus): BQL and 23.88 ng/ml and 2.51 ng/ml and 6.98 ng/ml
[1]; Study 44, Day 6, 400 mg TID for five days
  Pleconaril Concentration (Nasal Mucus): 1.77 ng/mL and 2.43 ng/mL
[1]; human, nasal mucus, oral, 400 mg TID, Pleconaril Concentration (Nasal Mucus), Study 44, Day 6, 400 mg TID for five days
  concentration at 6 day: 1.68 ng/mL
[2]; plasma concentration range exceeding the proposed regimen by approximately 2-fold
  pharmacokinetic profile, dose dependence: dose proportional and linear
[2]; urine
  dose excreted unchanged as pleconaril in urine: Less than 1%
[2]; with food
  increase of absorption when administered with food: 3-4 fold
[3]
  plasma accumulation: approximately two
HRV serotype 2; HRV-2
  reversibility of binding to the virion: reversible upon dilution
HRV serotype 2; serotype 2, about 10 times IC50, then diluted 10,000-fold, plaque assay
  % Recovery of input infectious virus (% SD): 65.8 (51.3) %
HRV serotype 5
  % Recovery of input infectious virus (% SD): 118 (53.5) %
HRV serotype 14; HRV serotype 14
  reversibility of binding to the virion: binds irreversibly
HRV serotype 14; serotype 14, about 10 times IC50, then diluted 10,000-fold, plaque assay
  % Recovery of input infectious virus (% SD): 16.4 (33.9) %
HRV serotype 89; HRV serotype 89
  reversibility of binding to the virion: binds irreversibly
HRV serotype 89; serotype 89, about 10 times IC50, then diluted 10,000-fold, plaque assay
  % Recovery of input infectious virus (% SD): 9.9 (100) %
HRV serotype 1A; HRV-1A
  reversibility of binding to the virion: reversible upon dilution
HRV serotype 1A; serotype 1A, about 10 times IC50, then diluted 10,000-fold, plaque assay
  % Recovery of input infectious virus (% SD): 85.4 (52.8) %
HRV serotype 50; HRV serotype 50
  reversibility of binding to the virion: binds irreversibly
HRV serotype 50; serotype 50, about 10 times IC50, then diluted 10,000-fold, plaque assay
  % Recovery of input infectious virus (% SD): 11.9 (40) %
HRV serotype 3; HRV-3
  reversibility of binding to the virion: reversible upon dilution
HRV serotype 3; serotype 3, about 10 times IC50, then diluted 10,000-fold, plaque assay
  % Recovery of input infectious virus (% SD): 92.8 (40.4) %
HRV3
  reduction in the amount of attached intact 156S virions (uncoating): minimal reduction
